Experiments:
[1] = tested on: RANKL (Receptor Activator of NK-κB Ligand) in human osteoblasts; assay: sRANKL expression increased by AngII in human osteoblasts; assay type: cell-based; conditions: two-day cultivation
Experimental: Purpose: Using human osteoblasts, expression of RANKL (Receptor Activator of NK-κB Ligand) which increases with angiotensin 2 (AngII) was measured. Then, inhibitory effect of olmesartan doxomil was examined.
Methods: Human osteoblasts (Clonetics Corp., Palo Alto, Calif.) were cultured in DMEM medium under conditions of 10% FCS, 5% CO2 and 37° C. AngII (1 μM) (Sigma) was added to the culture. After two-day cultivation, sRANKL (soluble Receptor Activator of NK-κB Ligand) contained in the culture supernatant was examined by […] (Biomedica). Further, effect produced by simultaneous administration of olmesartan (1 μM) or angiotensin type II receptor antagonist PD (123319) (chemical name: (S)-1-(4-[dimethylamino]-3-methylphenyl)methyl-5-(diphenylacetyl)-4,5,6,7-tetrahydro-1H-imidazo[4,5-c]pyridine-6-carboxylate) (1 μM) (Sigma-aldrich) was also examined.

[2] = tested on: TRAP (tartarate-resistant acid phosphatase) activity in the thigh bone; assay: TRAP activity in the thigh bone of ovariectomized spontaneously hypertensive rats; assay type: in vivo, spontaneously hypertensive rats (SHR); conditions: osmotic pump, one month after ovariectomy, ovariectomy group 76.9±9.9, non-treatment 59.6±1.0
Experimental: (§1) Purpose: Using spontaneously hypertensive rats, increase in TRAP (tartarate-resistant acid phosphatase) activity in the thigh bone and decrease in the bone density after ovariectomy were measured. Then, inhibitory effects of olmesartan medoxomil against TRAP activity increase and bone density decrease were examined. TRAP is a marker enzyme for osteoclasts, and TRAP activity increases when osteoclasts are activated. When osteoclasts are activated, bone is resorbed and thus bone density is decreased.
(§2) Methods: The ovary was removed from 8-week-old female spontaneously hypertensive rats (SHR) (Charles River). After one month observation, the thigh bone was removed, followed by measurement of TRAP activity in the bone (Walter K., et al., Method of Enzymatic Analysis, Academic Press, New York & London: 1974; 856-870) and simultaneous measurement of bone density (Venken K., et al., Bone 2005; 36: 663-670). Further, from immediately after the ovariectomy, olmesartan was administered subcutaneously at two different concentrations of 0.5 mg/kg/day and 1 mg/kg/day using an osmotic pressure pump (Alzet model 2004; Alza Corp).

[3] = Blood pressure and heart rate in ovariectomized spontaneously hypertensive rats (Table A); assay type: in vivo, spontaneously hypertensive rats (SHR); conditions: average value; for Blood Pressure (diastolic): ovariectomy group 94.6667; for Blood Pressure (average): ovariectomy group 107; for Blood Pressure (systolic): ovariectomy group 131.667
Experimental: as §2
Although administration of olmesartan brought no changes in the length and weight of the bone, concentration dependent decrease was recognized in TRAP activity in the thigh bone (Ovariectomy+ARB0.5 group: 71.7±8.7 U/L; Ovariectomy+ARB 1 group: 66.1±3.6 U/L). Concentration dependent decrease in blood pressure was also recognized as a result of administration of olmesartan (Table A).

[4] = Bone density, bone length and weight in ovariectomized spontaneously hypertensive rats; assay type: in vivo, spontaneously hypertensive rats (SHR); conditions: one month after ovariectomy, ovariectomy group 0.1438±0.003445, non-treatment 0.1685±0.002684
Experimental: as §1, §2
Although administration of olmesartan brought no changes in the length and weight of the bone, concentration dependent decrease was recognized in TRAP activity in the thigh bone (Ovariectomy+ARB0.5 group: 71.7±8.7 U/L; Ovariectomy+ARB 1 group: 66.1±3.6 U/L). […]

[5] = tested on: osteoclasts (TRAP positive multinucleated cells) in domestic rabbit bone marrow culture system; assay: Osteoclast formation induced by active vitamin D3 in domestic rabbit bone marrow culture (TRAP staining); assay type: cell-based, domestic rabbit (New Zealand White Rabbit)
Experimental: Purpose: Using a domestic rabbit bone marrow culture system, the number of osteoclasts which were differentiation-induced by active vitamin D3 was measured. Then, inhibitory effect of olmesartan medoxomil was examined.
Methods: A three-day-old domestic rabbit (New Zealand White Rabbit) was sacrificed, followed by removal of the thigh bone and the tibia. After collection of the bone marrow, the leukocyte (granulocyte-monocyte) fraction was isolated and cultured under conditions of α-MEM, 10% FBS, 5% CO2, 37° C. 24-well culture plates were used for the culture. The cell count was adjusted to 5×10^4 cells/well. Active vitamin D3 (10^−8M) was added to the culture system. On day 3, 7 and 10 of the culture, cells were fixed with 4% paraformaldehyde and stained with tartarate-resistant acid phosphatase (TRAP staining) under acidic conditions (pH 5.0). The number of multinucleated cells stained with red (osteoclasts) was measured. Similar measurement was performed with addition of olmesartan at concentrations of 10^−8, 10^−7 and 10^−6M. With respect to TRAP positive cells (generally, containing 1 to 100 nuclei in one cell), they were divided into three groups depending on the degree of fusion: small cells (containing 1 to 2 nuclei), medium cells (containing 3 to 9 nuclei) and large cells (containing 10 or more nuclei).

[6] = AngII 1 μM plus test substance 1 μM added simultaneously, AngII group 1.045±0.129, control 0.133±0.0271
[7] = Ovariectomy + 1 mg/kg/day (n = 3)

## Cc1cc(Cn2cnc3c2C[C@@H](C(=O)O)N(C(=O)C(c2ccccc2)c2ccccc2)C3)ccc1N(C)C [PD (123319), (S)-1-(4-[dimethylamino]-3-methylphenyl)methyl-5-(diphenylacetyl)-4,5,6,7-tetrahydro-1H-imidazo[4,5-c]pyridine-6-carboxylate]
[1]; [6]
  sRANKL in culture supernatant: 0.747 ± 0.0855 pM

## CCCc1nc(C(C)(C)O)c(C(=O)O)n1Cc1ccc(-c2ccccc2-c2nnn[nH]2)cc1 [olmesartan, 4-(1-hydroxy-1-methylethyl)-2-propyl-1-[4-[2-(tetrazole-5-yl)phenyl]phenyl]methylimidazole-5-carboxylic acid]
[2]; 0.5 mg/kg/day subcutaneously
  TRAP activity in the thigh bone: 71.7±8.7 U/L
[2]; 1 mg/kg/day subcutaneously
  TRAP activity in the thigh bone: 66.1±3.6 U/L
[3]; Ovariectomy + 0.5 mg/kg/day
  Blood Pressure (diastolic): 68.3333
  Blood Pressure (average): 81.3333
  Blood Pressure (systolic): 107
[3]; [7]
  Blood Pressure (diastolic): 45.8
  Blood Pressure (average): 56.25
  Blood Pressure (systolic): 70.8
[1]; [6]
  sRANKL in culture supernatant: 0.0442 ± 0.0328 pM
[4]; 0.5 mg/kg/day subcutaneously
  bone density (dual-energy X-ray absorptiometry): 0.1527±0.003454 g/cm^2
[4]; 1 mg/kg/day subcutaneously
  bone density (dual-energy X-ray absorptiometry): 0.1539±0.004365 g/cm^2
[5]; any of the groups (10^−8, 10^−7, 10^−6 M)
  growth of coexisting mesenchymal cells: no remarkable change
[5]; day 10, olmesartan 10^−6 M, active vitamin D3 10^−8M, control 68.6
  TRAP positive cells, average cell count, medium cells (containing 3 to 9 nuclei): 50.2
[5]; day 10, olmesartan 10^−6 M, active vitamin D3 10^−8M, control 80.6
  TRAP positive cells, average cell count, large cells (containing 10 or more nuclei): 23.0
[5]; day 10, olmesartan 10^−6 M, active vitamin D3 10^−8M, control 101.6
  TRAP positive cells, average cell count, small cells (containing 1 to 2 nuclei): 192.8
[5]; olmesartan 10^−6 M, day 3, compared to control group
  fusion of mononuclear cells: significantly reduced
[5]; olmesartan 10^−6 M, day 10
  change in TRAP positive cell count compared to the control group: a significant reduction
[5]; olmesartan 10^−7 M, day 10
  change in TRAP positive cell count compared to the control group: a reduction in TRAP positive cell count
[5]; olmesartan 10^−8 M
  change in TRAP positive cell count compared to the control group: no remarkable change
[5]; olmesartan addition groups, control group 149.2, p<0.05
  osteoclasts contributing to bone resorption (medium and large cells): 73.2
[5]; olmesartan addition groups, control group 250.8, no statistically significant difference
  total number of TRAP positive, multinucleated cells: 265.0

## AngII: angiotensin 2 (AngII) (Sigma), added at 1 μM to human osteoblast culture; increases RANKL expression (DRVYIHPF; Angiotensin-2; UniProt P01019 25-32, looked up)
[1]; AngII 1 μM alone, non-addition control 0.133±0.0271
  sRANKL in culture supernatant: 1.045 ± 0.129 pM

— patent US20120046327A1, “METHOD FOR INHIBITING THE INDUCTION AND FORMATION OF OSTEOCLASTS” (OSAKA UNIVERSITY, priority 2005, published 2012)
